This assay has as its system P388 leukemia ip, CD2F1 mice, survival T/C. Put plainly: NCI In Vivo Anticancer Drug Screen. Data for tumor model P388 Leukemia (intraperitoneal) in CD2F1 (CDF1) mice. Conditions: endpoint: median survival time, higher = longer survival. Summed up: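 Mice carrying the transplanted tumor received test compound or vehicle. Survival was recorded in each group, and the value is the treated-group measurement divided by that of the vehicle-treated control group.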

Where [1] appears, read: dose: 50.0 mg/kg/injection, schedule: Q01DX005 (ip), vehicle: Klucel (hydroxypropylcellulose) (HPC).
Where [2] appears, read: dose: 100.0 mg/kg/injection, schedule: Q01DX005 (ip), vehicle: Klucel (hydroxypropylcellulose) (HPC).
Setting [3] is: dose: 240.0 mg/kg/injection, schedule: Q01DX005 (ip), vehicle: Klucel (hydroxypropylcellulose) (HPC).
Where [4] appears, read: dose: 50.0 mg/kg/injection, schedule: Q01DX009 (ip), vehicle: saline with Tween-80.
Setting [5] is: dose: 50.0 mg/kg/injection, schedule: Q01DX009 (ip), vehicle: Klucel (hydroxypropylcellulose) (HPC).
The mark [6] stands for this setting: dose: 50.0 mg/kg/injection, schedule: Q01DX005 (ip), vehicle: saline with Tween-80.
The mark [7] stands for this setting: dose: 100.0 mg/kg/injection, schedule: Q01DX005 (ip), vehicle: saline with Tween-80.
Where [8] appears, read: dose: 200.0 mg/kg/injection, schedule: Q01DX005 (ip), vehicle: saline with Tween-80.

Toxic doses and inconclusive results are not listed.

As for `COC1=C(C)C(=O)C2=C(C1=O)C1C3CC4=C(C(=O)C(OC)=C(C)C4=O)C(CNC(=O)C(C)=O)N3C(C#N)C(C2)N1C` (centres undefined), the T/C (dose: 0.06 mg/kg/injection, schedule: Q01DX009 (ip), vehicle: Klucel (hydroxypropylcellulose) (HPC)) is 122 % of control; the T/C (dose: 0.31 mg/kg/injection, schedule: Q01DX009 (sc), vehicle: Klucel (hydroxypropylcellulose) (HPC)) is 107 % of control; the T/C (dose: 0.62 mg/kg/injection, schedule: Q01DX009 (ip), vehicle: Klucel (hydroxypropylcellulose) (HPC)) was 160 % of control; the T/C (dose: 0.62 mg/kg/injection, schedule: Q01DX009 (sc), vehicle: Klucel (hydroxypropylcellulose) (HPC)) was 115 % of control; the T/C (dose: 1.0 mg/kg/injection, schedule: Q01DX009 (ip), vehicle: saline) is 156 % of control; the T/C (dose: 1.25 mg/kg/injection, schedule: Q01DX009 (ip), vehicle: Klucel (hydroxypropylcellulose) (HPC)) was 107 % of control. In addition, the T/C is 118 % of control (dose: 1.25 mg/kg/injection, schedule: Q01DX009 (sc), vehicle: Klucel (hydroxypropylcellulose) (HPC)) and 87 % of control (dose: 2.0 mg/kg/injection, schedule: Q01DX009 (ip), vehicle: saline).
With `COc1c(OC)c(C2(O)C(=O)N(C)c3ccccc32)c2c(c1C1(O)C(=O)N(C)c3ccccc31)OCO2` (centres undefined), the T/C is 95 % of control (dose: 60.0 mg/kg/injection, schedule: Q01DX005 (ip), vehicle: saline with Tween-80); 90 % of control (dose: 120.0 mg/kg/injection, schedule: Q01DX005 (ip), vehicle: saline with Tween-80); 89 % of control (dose: 240.0 mg/kg/injection, schedule: Q01DX005 (ip), vehicle: saline with Tween-80).
As to `CN(C)c1ccc(C(=C2C=CC(=[N+](C)C)C=C2)c2ccc(N(C)C)cc2)cc1` (tested in a mixture with another compound), the T/C runs as follows: (dose: 0.62 mg/kg/injection, schedule: Q01DX009 (ip), vehicle: saline with Tween-80) 122 % of control; (dose: 2.5 mg/kg/injection, schedule: Q01DX009 (ip), vehicle: saline with Tween-80) 120 % of control.
Regarding `N#CC(=N)C(C#N)=Nc1c(O)[nH]c2ccc(Br)cc12`, the T/C by setting is: (dose: 50.0 mg/kg/injection, schedule: Q01DX009 (ip), vehicle: saline) 100 % of control; (dose: 100.0 mg/kg/injection, schedule: Q01DX009 (ip), vehicle: saline) 94 % of control; (dose: 200.0 mg/kg/injection, schedule: Q01DX009 (ip), vehicle: saline) 91 % of control.
`O=S1Nc2ccccc2[C@H]2[C@@H]1[C@H]1O[C@@H]2c2ccccc21` (some centres undefined): the T/C is, setting by setting: under setting [1], 112 % of control; under setting [2], 105 % of control; under setting [3], 101 % of control.
Regarding `O=[N+]([O-])c1ccc(SC2=NCCCN2)c(Cl)c1`, the T/C is, setting by setting: under setting [4], 102 % of control; (dose: 100.0 mg/kg/injection, schedule: Q01DX009 (ip), vehicle: saline with Tween-80) 100 % of control; (dose: 200.0 mg/kg/injection, schedule: Q01DX009 (ip), vehicle: saline with Tween-80) 105 % of control.
On to `Clc1ccc(C(CCc2ccc(Br)cc2)Cn2ccnc2)c(Cl)c1` (centres undefined), for which the T/C is 88 % of control (dose: 25.0 mg/kg/injection, schedule: Q01DX009 (ip), vehicle: saline with Tween-80) and 87 % of control under setting [4].
For the compound `Cc1ccc(N)c(S)c1`, the T/C reads like this: (dose: 12.5 mg/kg/injection, schedule: Q01DX009 (ip), vehicle: Klucel (hydroxypropylcellulose) (HPC)) 98 % of control; (dose: 25.0 mg/kg/injection, schedule: Q01DX009 (ip), vehicle: Klucel (hydroxypropylcellulose) (HPC)) 120 % of control; under setting [5], 117 % of control.
As for `NC(=O)CCS(=O)(=O)Cc1ccccc1`, the T/C under setting [6] was 98 % of control, the T/C under setting [7] is 95 % of control and the T/C under setting [8] was 93 % of control.
As for `CCOc1c(N=Nc2ccccc2OC)c(C)nn1C(=S)S`, the T/C is, setting by setting: (dose: 60.0 mg/kg/injection, schedule: Q01DX005 (ip), vehicle: Klucel (hydroxypropylcellulose) (HPC)) 102 % of control; (dose: 120.0 mg/kg/injection, schedule: Q01DX005 (ip), vehicle: Klucel (hydroxypropylcellulose) (HPC)) 114 % of control; under setting [3], 105 % of control.
Turning to `COc1cccc2c1C(=O)c1c(O)c3c(c(O)c1C2=O)CC(O)(C(C)=O)CC3OC1CC(NC(=O)C(CCCCN)NC(=O)C(N)CCN)C(O)C(C)O1` (centres undefined), the T/C (dose: 2.5 mg/kg/injection, schedule: Q04DX003 (ip), vehicle: water) is 94 % of control; the T/C (dose: 5.0 mg/kg/injection, schedule: Q04DX003 (ip), vehicle: water) is 94 % of control; the T/C (dose: 10.0 mg/kg/injection, schedule: Q04DX003 (ip), vehicle: water) is 98 % of control; the T/C (dose: 20.0 mg/kg/injection, schedule: Q04DX003 (ip), vehicle: water) was 101 % of control; the T/C (dose: 40.0 mg/kg/injection, schedule: Q04DX003 (ip), vehicle: water) was 105 % of control; the T/C (dose: 80.0 mg/kg/injection, schedule: Q04DX003 (ip), vehicle: distilled water + Tween-80) is 96 % of control. Further, the T/C by setting is: (dose: 160.0 mg/kg/injection, schedule: Q04DX003 (ip), vehicle: distilled water + Tween-80) 105 % of control; (dose: 320.0 mg/kg/injection, schedule: Q04DX003 (ip), vehicle: distilled water + Tween-80) 105 % of control.
Regarding `CCCCCCCC(=O)C1C(c2ccc(C(C)C)cc2)CC(=O)C(CCCCCC)C1c1ccc(C(C)C)cc1` (centres undefined), the T/C is, setting by setting: (dose: 6.25 mg/kg/injection, schedule: Q01DX005 (ip), vehicle: saline with Tween-80) 91 % of control; (dose: 12.5 mg/kg/injection, schedule: Q01DX005 (ip), vehicle: saline with Tween-80) 89 % of control; (dose: 25.0 mg/kg/injection, schedule: Q01DX005 (ip), vehicle: saline with Tween-80) 99 % of control; under setting [7], 93 % of control; under setting [8], 98 % of control.
In the case of `c1ccc(SC(Sc2ccccc2)=C2CCCCC2)cc1`, the T/C reads like this: under setting [5], 100 % of control; (dose: 100.0 mg/kg/injection, schedule: Q01DX009 (ip), vehicle: Klucel (hydroxypropylcellulose) (HPC)) 106 % of control; (dose: 200.0 mg/kg/injection, schedule: Q01DX009 (ip), vehicle: Klucel (hydroxypropylcellulose) (HPC)) 90 % of control.
`CCOc1ccc2c(c1)c(C)cc(C)[n+]2CC`: the T/C runs as follows: (dose: 6.25 mg/kg/injection, schedule: Q04DX003 (ip), vehicle: saline with Tween-80) 97 % of control; (dose: 12.5 mg/kg/injection, schedule: Q04DX003 (ip), vehicle: saline with Tween-80) 99 % of control.
With `Cc1ccc(NCCNCCO)c2c(=O)c3ccccc3sc12`, the T/C runs as follows: (dose: 3.75 mg/kg/injection, schedule: Q01DX009 (ip), vehicle: water) 100 % of control; (dose: 7.5 mg/kg/injection, schedule: Q01DX009 (ip), vehicle: distilled water + Tween-80) 113 % of control; (dose: 7.5 mg/kg/injection, schedule: Q01DX009 (ip), vehicle: water) 99 % of control; (dose: 12.5 mg/kg/injection, schedule: Q01DX005 (ip), vehicle: other) 113 % of control; (dose: 15.0 mg/kg/injection, schedule: Q01DX009 (ip), vehicle: distilled water + Tween-80) 120 % of control; (dose: 15.0 mg/kg/injection, schedule: Q01DX009 (ip), vehicle: water) 123 % of control. Besides, the T/C is 120 % of control (dose: 25.0 mg/kg/injection, schedule: Q01DX005 (ip), vehicle: other); 119 % of control under setting [1]; 158 % of control under setting [2]; 155 % of control (dose: 200.0 mg/kg/injection, schedule: Q01DX005 (ip), vehicle: Klucel (hydroxypropylcellulose) (HPC)).
Turning to `CC(NC(=O)OC(C)(C)C)C(=O)NC(C)C(=O)NC(C)C(=O)Nc1ccc([N+](=O)[O-])cc1` (centres undefined), the T/C was 94 % of control under setting [6], 92 % of control under setting [7] and 87 % of control under setting [8].
For the compound `CC(C)(C)OP(=O)(O)OC(C)(C)C`, the T/C by setting is: (dose: 25.0 mg/kg/injection, schedule: Q01DX009 (ip), vehicle: water) 103 % of control; (dose: 50.0 mg/kg/injection, schedule: Q01DX009 (ip), vehicle: water) 100 % of control; (dose: 100.0 mg/kg/injection, schedule: Q01DX009 (ip), vehicle: water) 107 % of control; (dose: 200.0 mg/kg/injection, schedule: Q01DX009 (ip), vehicle: water) 107 % of control; (dose: 400.0 mg/kg/injection, schedule: Q01DX009 (ip), vehicle: water) 112 % of control.

The record behind these values is PubChem BioAssay AID330 (DTP/NCI, 2004).
